According to ChEMBL document CHEMBL2029232, “Identification of small-molecule inhibitors of the steroidogenic acute regulatory protein (STARD1) by structure-based design” (Bioorg Med Chem Lett, 2012):
Calls of active or inactive are those of the source. No cut-off for these calls is given here.

Legend:
[1] = Inhibition of 22R-hydroxycholesterol-induced steroidogenesis in mouse MA-10 cells assessed as progesterone synthesis per mg of protein at 10 uM after 2 hrs by RIA; assay type: cell-based; conditions: ma-10, 2 h
[2] = molecular target: T1, Steroidogenic acute regulatory protein, mitochondrial (Mus musculus) (UniProt P51557); experiment: Inhibition of STAR in mouse MA-10 cells assessed as inhibition of dbcAMP-stimulated […] at 10 uM after 2 hrs by RIA; assay type: cell-based
T1 sequence (whole entry): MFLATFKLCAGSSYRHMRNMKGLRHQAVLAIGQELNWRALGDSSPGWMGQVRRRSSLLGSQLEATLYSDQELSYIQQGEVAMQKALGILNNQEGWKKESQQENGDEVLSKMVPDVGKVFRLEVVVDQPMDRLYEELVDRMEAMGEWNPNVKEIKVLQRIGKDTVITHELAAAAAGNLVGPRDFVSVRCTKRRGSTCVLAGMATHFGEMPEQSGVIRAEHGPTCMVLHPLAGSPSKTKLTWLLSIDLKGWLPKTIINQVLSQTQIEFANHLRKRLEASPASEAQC

SMILES | Activity [1] [ng] | inhibition [2]
CC(=O)OCC(=O)[C@H]1CC[C@H]2[C@@H]3CC=C4C[C@@H](O)CC[C@]4(C)[C@H]3CC[C@]12C | 1301 | 50%
C[C@H](CCC(=O)O)[C@H]1CC[C@H]2[C@@H]3CC=C4C[C@@H](O)CC[C@]4(C)[C@H]3CC[C@]12C | – | inactive
C[C@]12CCC(=O)C=C1CC[C@@H]1[C@@H]2[C@@H](O)C[C@@]2(C)[C@H]1CC[C@]2(O)C(=O)CO | – | inactive
C[C@]12CC(O)[C@H]3[C@@H](CCC4=CC(=O)CC[C@@]43C)[C@@H]1CC[C@@H]2C(=O)O (stereo partly drawn) | – | inactive
CC(=O)O[C@H]1CC[C@@]2(C)C(=CC[C@H]3[C@@H]4CC(O)[C@H]([C@H](C)OC(C)=O)[C@@]4(C)CC[C@@H]32)C1 (stereo partly drawn) | – | inactive
C[C@]12CC[C@H]3[C@@H](CC=C4C[C@@H](O)CC[C@@]43C)[C@@H]1C/C(=C/c1ccc(OC(F)F)cc1)[C@@H]2O | 923 | 50%
